Measurements: US10150760B2, “Compounds for use in preparing heterocyclic triazole agonists of the APJ receptor” (AMGEN INC., priority 2016, dated 2018)

Each substance was assayed against human APJ receptor (Homo sapiens (Human), UniProt P35414) (assay: [35S]GTPγS binding assay on membranes from CHO cells stably expressing human APJ receptor). Details: read-out: Activity hAPJ SPA EC50 IP.
Format: biochemical
Method in brief: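 Agonist-driven [35S]GTPγS (0.2 nM) binding was measured over 90 min at room temperature on human APJ-expressing CHO membranes with bead capture, in buffer containing 3 μM GDP, 200 mM NaCl and 5 mM MgCl2 (pH 7.5). Excess unlabelled GTPγS (100 μM) gave nonspecific signal; EC50 from non-linear fits.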

Sequence of human APJ receptor (P35414 whole entry): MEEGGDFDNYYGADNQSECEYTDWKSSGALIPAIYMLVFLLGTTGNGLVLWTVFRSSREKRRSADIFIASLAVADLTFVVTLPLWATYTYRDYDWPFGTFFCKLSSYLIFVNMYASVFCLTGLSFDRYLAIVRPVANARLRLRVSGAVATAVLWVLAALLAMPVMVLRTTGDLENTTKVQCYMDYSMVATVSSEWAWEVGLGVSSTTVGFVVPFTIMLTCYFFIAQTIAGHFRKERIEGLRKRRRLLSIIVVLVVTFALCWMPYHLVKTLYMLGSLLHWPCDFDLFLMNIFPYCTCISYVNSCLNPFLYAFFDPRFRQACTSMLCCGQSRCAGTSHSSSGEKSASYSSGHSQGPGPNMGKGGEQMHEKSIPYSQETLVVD

Substance | EC50 [nM]
(1R,2S)-N-(4-(4,6-dimethoxypyrimidin-5-yl)-5-((S)-tetrahydrofuran-2-yl)-4H-1,2,4-triazol-3-yl)-1-methoxy-1-(5-methylpyrazin-2-yl)propane-2-sulfonamide or (1R,2S)-N-(4-(4,6-dimethoxypyrimidin-5-yl)-5-((R)-tetrahydrofuran-2-yl)-4H-1,2,4-triazol-3-yl)-1-methoxy-1-(5-methylpyrazin-2-yl)propane-2-sulfonamide [Example 186.0] | 80
(1R,2S)-N-(4-([1,1′-bi(cyclopropyl)]-1-yl)-5-((2R)-1,4-dioxan-2-yl)-4H-1,2,4-triazol-3-yl)-1-methoxy-1-(5-methyl-2-pyrazinyl)-2-propanesulfonamide or (1R,2S)-N-(4-([1,1′-bi(cyclopropyl)]-1-yl)-5-((2S)-1,4-dioxan-2-yl)-4H-1,2,4-triazol-3-yl)-1-methoxy-1-(5-methyl-2-pyrazinyl)-2-propanesulfonamide [Example 328.0] | 230
(1R,2S)-N-(4-([1,1′-bi(cyclopropyl)]-1-yl)-5-((2R)-1,4-dioxan-2-yl)-4H-1,2,4-triazol-3-yl)-1-methoxy-1-(5-methyl-2-pyrazinyl)-2-propanesulfonamide or (1R,2S)-N-(4-([1,1′-bi(cyclopropyl)]-1-yl)-5-((2S)-1,4-dioxan-2-yl)-4H-1,2,4-triazol-3-yl)-1-methoxy-1-(5-methyl-2-pyrazinyl)-2-propanesulfonamide [Example 329.0] | 1300
(1R,2S)-N-(4-([1,1′-bi(cyclopropyl)]-1-yl)-5-((2S)-1,4-dioxan-2-yl)-4H-1,2,4-triazol-3-yl)-1-(5-chloro-2-pyrimidinyl)-1-methoxy-2-propanesulfonamide or (1R,2S)-N-(4-([1,1′-bi(cyclopropyl)]-1-yl)-5-((2R)-1,4-dioxan-2-yl)-4H-1,2,4-triazol-3-yl)-1-(5-chloro-2-pyrimidinyl)-1-methoxy-2-propanesulfonamide [Example 325.0] | 14
(1R,2S)-N-(4-([1,1′-bi(cyclopropyl)]-1-yl)-5-((2S)-1,4-dioxan-2-yl)-4H-1,2,4-triazol-3-yl)-1-(5-chloro-2-pyrimidinyl)-1-methoxy-2-propanesulfonamide or (1R,2S)-N-(4-([1,1′-bi(cyclopropyl)]-1-yl)-5-((2R)-1,4-dioxan-2-yl)-4H-1,2,4-triazol-3-yl)-1-(5-chloro-2-pyrimidinyl)-1-methoxy-2-propanesulfonamide [Example 326.0] | 1700
(1R,2S)-N-(5-((R)-1,4-dioxan-2-yl)-4-(1-(pyridin-3-yl)cyclopropyl)-4H-1,2,4-triazol-3-yl)-1-(5-chloropyrimidin-2-yl)-1-methoxypropane-2-sulfonamide or (1R,2S)-N-(5-((S)-1,4-dioxan-2-yl)-4-(1-(pyridin-3-yl)cyclopropyl)-4H-1,2,4-triazol-3-yl)-1-(5-chloropyrimidin-2-yl)-1-methoxypropane-2-sulfonamide [Example 295.0] | 16
(1R,2S)-N-(5-((R)-1,4-dioxan-2-yl)-4-(1-(pyridin-3-yl)cyclopropyl)-4H-1,2,4-triazol-3-yl)-1-(5-chloropyrimidin-2-yl)-1-methoxypropane-2-sulfonamide or (1R,2S)-N-(5-((S)-1,4-dioxan-2-yl)-4-(1-(pyridin-3-yl)cyclopropyl)-4H-1,2,4-triazol-3-yl)-1-(5-chloropyrimidin-2-yl)-1-methoxypropane-2-sulfonamide [Example 296.0] | 170
(1R,2S)-N-(5-((R)-2,3-dihydrobenzofuran-2-yl)-4-(4,6-dimethoxypyrimidin-5-yl)-4H-1,2,4-triazol-3-yl)-1-methoxy-1-(5-methylpyrimidin-2-yl)propane-2-sulfonamide or (1R,2S)-N-(5-((S)-2,3-dihydrobenzofuran-2-yl)-4-(4,6-dimethoxypyrimidin-5-yl)-4H-1,2,4-triazol-3-yl)-1-methoxy-1-(5-methylpyrimidin-2-yl)propane-2-sulfonamide [Example 233.0] | 1270
(1R,2S)-N-(5-((R)-2,3-dihydrobenzofuran-3-yl)-4-(2,6-dimethoxyphenyl)-4H-1,2,4-triazol-3-yl)-1-methoxy-1-(5-methylpyrimidin-2-yl)propane-2-sulfonamide or (1R,2S)-N-(5-((S)-2,3-dihydrobenzofuran-3-yl)-4-(2,6-dimethoxyphenyl)-4H-1,2,4-triazol-3-yl)-1-methoxy-1-(5-methylpyrimidin-2-yl)propane-2-sulfonamide [Example 238.0] | 810
(1R,2S)-N-(5-((R)-2,3-dihydrobenzofuran-3-yl)-4-(2,6-dimethoxyphenyl)-4H-1,2,4-triazol-3-yl)-1-methoxy-1-(5-methylpyrimidin-2-yl)propane-2-sulfonamide or (1R,2S)-N-(5-((S)-2,3-dihydrobenzofuran-3-yl)-4-(2,6-dimethoxyphenyl)-4H-1,2,4-triazol-3-yl)-1-methoxy-1-(5-methylpyrimidin-2-yl)propane-2-sulfonamide [Example 239.0] | 33
(1R,2S)-N-(5-((S)-1,4-dioxan-2-yl)-4-(1-(methoxymethyl)cyclopropyl)-4H-1,2,4-triazol-3-yl)-1-(5-chloropyrimidin-2-yl)-1-methoxypropane-2-sulfonamide or (1R,2S)-N-(5-((R)-1,4-dioxan-2-yl)-4-(1-(methoxymethyl)cyclopropyl)-4H-1,2,4-triazol-3-yl)-1-(5-chloropyrimidin-2-yl)-1-methoxypropane-2-sulfonamide [Example 341.0] | 1210
(1S,2S)-1-(5-chloro-2-pyrimidinyl)-N-(4-(1,3-dimethoxy-2-propanyl)-5-((2R,5R)-5-methyltetrahydro-2-furanyl)-4H-1,2,4-triazol-3-yl)-1-(2-propanyloxy)-2-propanesulfonamide or (1S,2S)-1-(5-chloro-2-pyrimidinyl)-N-(4-(1,3-dimethoxy-2-propanyl)-5-((2S,5S)-5-methyltetrahydro-2-furanyl)-4H-1,2,4-triazol-3-yl)-1-(2-propanyloxy)-2-propanesulfonamide [Example 354.0] | 92
(1S,2S)-1-(5-chloro-2-pyrimidinyl)-N-(4-(1,3-dimethoxy-2-propanyl)-5-((2R,5R)-5-methyltetrahydro-2-furanyl)-4H-1,2,4-triazol-3-yl)-1-(2-propanyloxy)-2-propanesulfonamide or (1S,2S)-1-(5-chloro-2-pyrimidinyl)-N-(4-(1,3-dimethoxy-2-propanyl)-5-((2S,5S)-5-methyltetrahydro-2-furanyl)-4H-1,2,4-triazol-3-yl)-1-(2-propanyloxy)-2-propanesulfonamide [Example 355.0] | 1.2
(1S,2S)-1-(5-chloro-2-pyrimidinyl)-N-(4-cyclopropyl-5-((2S,5S)-5-methyltetrahydro-2-furanyl)-4H-1,2,4-triazol-3-yl)-1-(2-propanyloxy)-2-propanesulfonamide or (1S,2S)-1-(5-chloro-2-pyrimidinyl)-N-(4-cyclopropyl-5-((2R,5R)-5-methyltetrahydro-2-furanyl)-4H-1,2,4-triazol-3-yl)-1-(2-propanyloxy)-2-propanesulfonamide [Example 352.0] | 1490
